# Measurements published in PubChem BioAssay AID2060498 (Molecular Pharmacology Branch, DTP, NCI, 2025).
# Tested on: 171881-019-R-J1-PDC tumor spheroids, viability
# Test: Anticancer human tumor 171881-019-R-J1-PDC patient-derived invasive breast carcinoma cell line growth inhibition [GQUAD]
# Settings: spheroids with HUVEC and MSC; for IC50: curve of first compound; for viability, T/C: stronger effect = lower value
# From the text: DNA G-quadruplex Stabilizer Agents in Combinations in Complex Spheroids
# A high-throughput screen of multi-cell type tumor spheroids was designed to identify active combinations of DNA G-quadruplex stabilizer agents and targeted small molecules. Complex spheroids include a stromal component modeled by human endothelial cells (HUVEC) and fibroblasts modeled by human mesenchymal stem cells (MSCs). The concentration ranges selected for each drug and investigational agent were based upon clinically achievable concentrations if the clinical Cmax of the agent was known.
# Compounds. The drugs and investigational agents: pidnarulex (CX-5461; NSC782164), APTO-253 (NSC789042), BRACO-19 (NSC847499), peposertib (NSC802822), ceralasertib (NSC780249), elimusertib (NSC800525), camonsertib (NSC841442), AZD-1390 (NSC803789), olaparib (NSC753686), talazoparib (NSC767125), ART-558 (NSC835418), sotorasib (NSC818433), MRTX-1133 (NSC836407), SN-38 (NSC673596), topotecan (NSC609699), etoposide (NSC141540), doxorubicin (NSC123127), gemcitabine (NSC613327), 5-fluorouracil (NSC19893), paclitaxel (NSC125973), vemurafenib (NSC761431), panobinostat (NSC761190), R-306465 (JNJ-16241199; NSC773264), adavosertib (NSC754352), TP-3654 (NSC805149), carboplatin (NSC241240), KSQ-4279 (NSC840948), and staurosporine (NSC755774) were obtained from the National Cancer Institute (NCI) Developmental Therapeutics Program Chemical Repository (34). The FDA-approved anticancer drug set is available from the NCI Developmental Therapeutics Program. […] The stock solutions were prepared in dimethyl sulfoxide (DMSO, Sigma-Aldrich, St. Louis, MO, cat. D2650) at 800-fold the tested concentration and stored at -70 degrees C prior to their use. All drugs and investigational agents were tested over a range starting from a high concentration at or near the clinical Cmax and decreasing in half-log increments. If the clinical Cmax for an agent had not been determined, the highest concentration tested was 10 microM.
# 2.3 Cell Culture. All cells were maintained in an incubator at 37 degrees C and 5% CO2 with 95% humidity. The PDC lines were cultured according to standard operating procedures established by the NCI PDMR. All PDCs were thawed and cultured in Matrigel-coated flasks prepared with a working solution of 1X Ham's F-12 nutrient mix, without supplementation (Invitrogen, cat. 11765054), 100 U/mL penicillin-streptomycin (Invitrogen, cat. 15140122), and 2.5% Matrigel (Corning Inc., cat. 354248) for the first three passages. The 857933-349-R-J2-PDC line was cultured in 6C/Colon 1B media, which includes advanced DMEM/F-12 (Thermo Fisher Scientific, cat. 12634028), 10 mM HEPES (Thermo Fisher Scientific, cat. 15630080), 1X GlutaMAX supplement (Thermo Fisher Scientific, cat. 35050061), 0.1 mg/mL primocin (InvivoGen, cat. ant-pm-2), 10% defined fetal bovine serum, heat inactivated (HyClone Laboratories Inc., cat. SH30070.03HI), 50% L-WRN conditioned media (ATCC, cat. CRL-3276), 1.25 mM N-Acetyl-L-cysteine (Sigma-Aldrich, cat. A9165), 10 mM nicotinamide (Sigma-Aldrich, cat. N0636), 1X B-27 supplement (Thermo Fisher Scientific, cat. 17504044), 1X N-2 supplement (Thermo Fisher Scientific, cat. 17502048), 10 microM Y-27632 dihydrochloride (Tocris Bioscience, cat. 1254), and 50 ng/mL human EGF recombinant protein (Thermo Fisher Scientific, cat. PHG0311). The 485176-168-R4-J1-PDC line was cultured in Panc media, which includes all 6C/Colon 1B media components plus 100 ng/mL human FGF-10 (Thermo Fisher Scientific, cat. 100-26), 500 nM SB-431542 (Selleckchem, cat. S1067), and gastrin (Tocris, cat. 3006).
# […]
# 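Further: spheroids exposed to compounds for 7 days.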
# 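Wherever viability, T/C is given: 100% = DMSO vehicle control viability.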
compound,measurement,setting,value
C=CC(=O)N1CCN(c2nc(=O)n(-c3c(C)ccnc3C(C)C)c3nc(-c4c(O)cccc4F)c(F)cc23)C(C)C1 (configuration not stated) + CN(C)c1ccc(Nc2c3ccc(NC(=O)CCN4CCCC4)cc3nc3cc(NC(=O)CCN4CCCC4)ccc23)cc1,IC50,second compound 0.0316 µM,> 10 µM
same,IC50,second compound 0.1 µM,> 10 µM
same,IC50,second compound 0.316 µM,7.36 µM
same,IC50,second compound 1 µM,< 0.0316 µM
same,IC50,second compound 3.16 µM,< 0.0316 µM
same,IC50,second compound 10 µM,< 0.0316 µM
same,"viability, T/C","second compound 0.0316 µM, first compound 0.0316 µM",98.3%
same,"viability, T/C","second compound 0.0316 µM, first compound 0.1 µM",104%
same,"viability, T/C","second compound 0.0316 µM, first compound 0.316 µM",102%
same,"viability, T/C","second compound 0.0316 µM, first compound 1 µM",117%
same,"viability, T/C","second compound 0.0316 µM, first compound 3.16 µM",99.3%
same,"viability, T/C","second compound 0.0316 µM, first compound 10 µM",53.5%
same,"viability, T/C","second compound 0.1 µM, first compound 0.0316 µM",94.8%
same,"viability, T/C","second compound 0.1 µM, first compound 0.1 µM",115%
same,"viability, T/C","second compound 0.1 µM, first compound 0.316 µM",111%
same,"viability, T/C","second compound 0.1 µM, first compound 1 µM",119%
same,"viability, T/C","second compound 0.1 µM, first compound 3.16 µM",96.9%
same,"viability, T/C","second compound 0.1 µM, first compound 10 µM",59.3%
same,"viability, T/C","second compound 0.316 µM, first compound 0.0316 µM",79.3%
same,"viability, T/C","second compound 0.316 µM, first compound 0.1 µM",75.8%
same,"viability, T/C","second compound 0.316 µM, first compound 0.316 µM",69.8%
same,"viability, T/C","second compound 0.316 µM, first compound 1 µM",70%
same,"viability, T/C","second compound 0.316 µM, first compound 3.16 µM",70.6%
same,"viability, T/C","second compound 0.316 µM, first compound 10 µM",42.9%
same,"viability, T/C","second compound 1 µM, first compound 0.0316 µM",19%
same,"viability, T/C","second compound 1 µM, first compound 0.1 µM",16%
same,"viability, T/C","second compound 1 µM, first compound 0.316 µM",18.6%
same,"viability, T/C","second compound 1 µM, first compound 1 µM",17.1%
same,"viability, T/C","second compound 1 µM, first compound 3.16 µM",15.3%
same,"viability, T/C","second compound 1 µM, first compound 10 µM",10.2%
same,"viability, T/C","second compound 3.16 µM, first compound 0.0316 µM",1.61%
same,"viability, T/C","second compound 3.16 µM, first compound 0.1 µM",1.65%
same,"viability, T/C","second compound 3.16 µM, first compound 0.316 µM",1.29%
same,"viability, T/C","second compound 3.16 µM, first compound 1 µM",1.13%
same,"viability, T/C","second compound 3.16 µM, first compound 3.16 µM",2.03%
same,"viability, T/C","second compound 3.16 µM, first compound 10 µM",1.73%
same,"viability, T/C","second compound 10 µM, first compound 0.0316 µM",0.27%
same,"viability, T/C","second compound 10 µM, first compound 0.1 µM",0.5%
same,"viability, T/C","second compound 10 µM, first compound 0.316 µM",0.42%
same,"viability, T/C","second compound 10 µM, first compound 1 µM",0.9%
same,"viability, T/C","second compound 10 µM, first compound 3.16 µM",0.45%
same,"viability, T/C","second compound 10 µM, first compound 10 µM",0.56%
